Test results published in patent publication US12053447B2, “Oral solution and powder to liquid compositions of balsalazide” (NuBioPharma, LLC, priority 2019, dated 2024).
Residues, ends and D or L forms follow the SMILES beside them.

Experiments:
[1] = Stability of sweetener aspartame in solution; format: physicochemical; details: pH 7.0 and above
[2] = Storage stability of liquid balsalazide solution (HPLC assay, settling); format: physicochemical
Protocol: The storage stability of two balsalazide disodium solutions, 750 mg/5 ml, with the formulations described in TABLE 6 and TABLE 7 with pH of 4.8 and pH 7.2, respectively were subjected to accelerated stability testing at 40° C. and at room temperature (25° C.). Balsalazide solutions stored in amber PVC bottles (30 ml volume) were tested over a 90-day storage period. The amount of balsalazide and its known impurities were determined by a validated high pressure liquid chromatography (HPLC) assay after 0 day (initial), 45 days, and 90 days and results are shown in TABLE 6 below. Five minor impurities (less than 0.1% each) were identified in balsalazide solution initially on day 0.

Row | SMILES | stability in solution [1] | stability of oral solution ([2]; acidic conditions of pH below 7.0) | stability of oral solution ([2]; pH of 7.0 or higher)
1 | COC(=O)[C@H](Cc1ccccc1)NC(=O)[C@@H](N)CC(=O)O [aspartame] (H-Asp-Phe-OMe) | unstable |  | 
2 | O=C(O)CCNC(=O)c1ccc(/N=N/c2ccc(O)c(C(=O)O)c2)cc1 [balsalazide] |  | unstable | stable
